For two molecules, Residual activity results are on record in PMC9030254, “Target Hopping from Protein Kinases to PXR: Identification of Small-Molecule Protein Kinase Inhibitors as Selective Modulators of Pregnane X Receptor from TüKIC Library” (Cells, 2022).

Common to all, as to assay: Kinase profiling
What all share (assay type): biochemical

One test addresses T1, DYRK4 (Homo sapiens, UniProt Q9NR20).
T1 construct: purchased ProQinase (Freiburg, Germany)
T1 sequence (Q9NR20 1-520): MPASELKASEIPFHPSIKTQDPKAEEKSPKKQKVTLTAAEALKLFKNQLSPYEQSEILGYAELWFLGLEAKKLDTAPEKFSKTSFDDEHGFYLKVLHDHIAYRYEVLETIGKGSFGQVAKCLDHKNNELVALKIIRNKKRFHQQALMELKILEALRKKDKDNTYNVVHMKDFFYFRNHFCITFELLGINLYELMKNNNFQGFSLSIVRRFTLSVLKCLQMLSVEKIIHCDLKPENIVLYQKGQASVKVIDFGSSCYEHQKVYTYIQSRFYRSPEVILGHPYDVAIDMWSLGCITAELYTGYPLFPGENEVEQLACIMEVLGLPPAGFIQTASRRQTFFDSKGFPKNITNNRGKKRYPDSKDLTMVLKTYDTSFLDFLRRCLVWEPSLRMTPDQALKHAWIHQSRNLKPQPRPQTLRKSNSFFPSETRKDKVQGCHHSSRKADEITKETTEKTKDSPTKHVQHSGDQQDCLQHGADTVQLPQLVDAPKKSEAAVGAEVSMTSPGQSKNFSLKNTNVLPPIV
On the procedure: (§1) The analysis was performed by ProQinase (Freiburg, Germany).

The next test addresses T2, MAP3K7/MAP3K7IP1 (Homo sapiens, UniProt O43318).
T2 construct: purchased ProQinase (Freiburg, Germany)
T2 sequence (O43318 1-303 limits assumed): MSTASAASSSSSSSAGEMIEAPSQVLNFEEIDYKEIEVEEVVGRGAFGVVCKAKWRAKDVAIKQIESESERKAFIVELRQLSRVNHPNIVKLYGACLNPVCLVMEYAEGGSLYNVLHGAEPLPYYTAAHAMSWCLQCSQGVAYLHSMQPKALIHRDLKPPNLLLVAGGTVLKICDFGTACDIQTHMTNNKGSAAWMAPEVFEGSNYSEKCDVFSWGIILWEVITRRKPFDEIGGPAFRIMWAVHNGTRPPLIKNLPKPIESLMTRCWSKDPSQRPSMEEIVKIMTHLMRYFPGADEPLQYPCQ
On the procedure: as §1

For another test, the target named is T3, MEK2 (Homo sapiens, UniProt P36507).
T3 construct: purchased ProQinase (Freiburg, Germany)
On the procedure: as §1

A further test deals with T4, MEK5 (Homo sapiens, UniProt Q13163).
T4 construct: purchased ProQinase (Freiburg, Germany)
T4 sequence (Q13163 1-448): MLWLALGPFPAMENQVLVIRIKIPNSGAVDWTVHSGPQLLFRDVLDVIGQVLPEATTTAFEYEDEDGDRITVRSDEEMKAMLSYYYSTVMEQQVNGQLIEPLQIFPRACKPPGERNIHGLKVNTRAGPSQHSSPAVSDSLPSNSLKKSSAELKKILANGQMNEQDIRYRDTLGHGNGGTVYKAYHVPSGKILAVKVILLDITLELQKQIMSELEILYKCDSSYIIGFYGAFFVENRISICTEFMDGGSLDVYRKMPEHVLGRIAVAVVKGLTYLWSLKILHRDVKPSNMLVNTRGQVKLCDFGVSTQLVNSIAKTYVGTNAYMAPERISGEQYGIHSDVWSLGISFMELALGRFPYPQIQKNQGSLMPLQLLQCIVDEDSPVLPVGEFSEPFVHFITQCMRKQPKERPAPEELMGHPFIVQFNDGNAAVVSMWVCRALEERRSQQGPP
On the procedure: as §1

In another test the target is T5, MTOR (Homo sapiens, UniProt P42345).
T5 construct: purchased ProQinase (Freiburg, Germany)
The method, then:
as §1

A further test has as its target T6, PHKG2 (Homo sapiens, UniProt P15735).
T6 construct: purchased ProQinase (Freiburg, Germany)
T6 sequence (P15735 1-406): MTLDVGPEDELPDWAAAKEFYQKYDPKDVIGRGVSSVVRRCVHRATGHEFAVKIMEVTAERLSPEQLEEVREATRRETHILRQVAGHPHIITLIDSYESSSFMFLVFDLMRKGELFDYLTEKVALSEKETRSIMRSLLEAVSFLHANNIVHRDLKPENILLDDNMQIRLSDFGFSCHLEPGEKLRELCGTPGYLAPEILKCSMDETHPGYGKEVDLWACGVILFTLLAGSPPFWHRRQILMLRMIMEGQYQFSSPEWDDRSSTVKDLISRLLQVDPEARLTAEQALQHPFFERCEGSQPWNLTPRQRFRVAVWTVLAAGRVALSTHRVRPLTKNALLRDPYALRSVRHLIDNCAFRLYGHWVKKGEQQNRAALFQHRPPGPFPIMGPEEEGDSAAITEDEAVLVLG
On the procedure:
as §1

The target of the next test is T7, RPS6KA1 (Homo sapiens, UniProt Q15418).
T7 construct: purchased ProQinase (Freiburg, Germany)
The method, then:
as §1

A further test has as its target T8, SYK (Homo sapiens, UniProt P43405).
T8 construct: purchased ProQinase (Freiburg, Germany)
The method, then: as §1

In a further test the target is T9, TSK2 (Homo sapiens, UniProt Q96PF2).
T9 construct: purchased ProQinase (Freiburg, Germany)
T9 sequence (Q96PF2 1-358): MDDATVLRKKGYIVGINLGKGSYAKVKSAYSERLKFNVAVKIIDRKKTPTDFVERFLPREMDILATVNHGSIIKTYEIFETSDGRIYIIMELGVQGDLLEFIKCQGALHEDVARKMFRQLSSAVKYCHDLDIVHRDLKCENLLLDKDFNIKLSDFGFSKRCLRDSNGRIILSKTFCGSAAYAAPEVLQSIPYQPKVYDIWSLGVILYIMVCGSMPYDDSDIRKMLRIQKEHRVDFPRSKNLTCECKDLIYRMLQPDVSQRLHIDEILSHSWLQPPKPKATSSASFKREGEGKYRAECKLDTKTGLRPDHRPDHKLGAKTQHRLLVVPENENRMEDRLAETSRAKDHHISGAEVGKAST
On the procedure: as §1

The next test has as its target T10, p38delta (Homo sapiens, UniProt O15264).
T10 construct: purchased ProQinase (Freiburg, Germany)
T10 sequence (O15264 1-365): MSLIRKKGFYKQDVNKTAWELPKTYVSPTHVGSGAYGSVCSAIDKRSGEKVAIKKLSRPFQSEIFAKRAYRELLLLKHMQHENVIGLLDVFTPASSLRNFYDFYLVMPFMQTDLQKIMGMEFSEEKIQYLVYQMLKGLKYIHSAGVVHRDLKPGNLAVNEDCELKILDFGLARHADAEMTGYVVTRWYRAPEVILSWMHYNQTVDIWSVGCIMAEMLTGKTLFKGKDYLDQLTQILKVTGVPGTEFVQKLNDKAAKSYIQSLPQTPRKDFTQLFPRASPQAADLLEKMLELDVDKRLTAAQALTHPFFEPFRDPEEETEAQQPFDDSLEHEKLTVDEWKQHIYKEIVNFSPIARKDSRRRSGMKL
The method, then: as §1

T7 sequence (Q15418 whole entry): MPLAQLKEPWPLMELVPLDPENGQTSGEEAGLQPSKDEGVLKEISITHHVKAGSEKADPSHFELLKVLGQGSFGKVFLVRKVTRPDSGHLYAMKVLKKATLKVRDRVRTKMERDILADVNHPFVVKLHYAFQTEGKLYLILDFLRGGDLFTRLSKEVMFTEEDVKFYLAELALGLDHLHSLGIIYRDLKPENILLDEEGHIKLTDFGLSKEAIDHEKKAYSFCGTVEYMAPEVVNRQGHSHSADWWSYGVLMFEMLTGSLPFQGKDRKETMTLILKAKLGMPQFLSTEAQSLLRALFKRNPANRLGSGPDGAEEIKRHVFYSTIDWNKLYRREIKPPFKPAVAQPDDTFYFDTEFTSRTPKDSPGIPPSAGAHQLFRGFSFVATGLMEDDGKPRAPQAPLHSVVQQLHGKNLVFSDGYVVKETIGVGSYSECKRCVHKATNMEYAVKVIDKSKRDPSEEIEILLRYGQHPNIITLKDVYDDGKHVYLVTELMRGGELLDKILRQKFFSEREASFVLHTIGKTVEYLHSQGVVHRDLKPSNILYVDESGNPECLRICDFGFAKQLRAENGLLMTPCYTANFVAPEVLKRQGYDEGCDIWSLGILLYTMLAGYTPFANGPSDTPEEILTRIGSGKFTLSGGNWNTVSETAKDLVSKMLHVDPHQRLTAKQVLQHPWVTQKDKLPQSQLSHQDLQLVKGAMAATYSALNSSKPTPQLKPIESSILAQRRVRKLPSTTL
T3 sequence (P36507 whole entry): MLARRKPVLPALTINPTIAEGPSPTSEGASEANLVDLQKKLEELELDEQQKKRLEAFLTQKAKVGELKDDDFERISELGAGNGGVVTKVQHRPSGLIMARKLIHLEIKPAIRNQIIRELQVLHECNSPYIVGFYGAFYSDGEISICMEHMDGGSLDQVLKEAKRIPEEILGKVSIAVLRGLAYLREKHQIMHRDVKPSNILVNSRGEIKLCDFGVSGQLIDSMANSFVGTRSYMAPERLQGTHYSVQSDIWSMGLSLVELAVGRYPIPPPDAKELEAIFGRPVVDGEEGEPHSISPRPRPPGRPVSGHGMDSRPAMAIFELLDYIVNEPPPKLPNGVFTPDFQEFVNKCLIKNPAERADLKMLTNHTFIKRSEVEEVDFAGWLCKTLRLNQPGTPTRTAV

Consider `O=C(Cc1ccccc1)Nc1ccc(F)c(Nc2ccc3c(c2)CCCCC3=O)c1` [Compound 100], for which the Residual activity at DYRK4 (1.0E-05 M) is on record as 94 % of control; on DYRK4 (1.0E-06 M) it was 98 % of control; at MAP3K7/MAP3K7IP1 (1.0E-05 M), 91 % of control; on MAP3K7/MAP3K7IP1 (1.0E-06 M), 88 % of control; on MEK2 (1.0E-05 M) it was 88 % of control; on MEK2 (1.0E-06 M), 102 % of control. For the same molecule, the Residual activity on MEK5 (1.0E-05 M) is listed as 114 % of control; at MEK5 (1.0E-06 M) it was 118 % of control; on MTOR (1.0E-05 M), 92 % of control; on MTOR (1.0E-06 M), 93 % of control; at PHKG2 (1.0E-05 M), 93 % of control; on PHKG2 (1.0E-06 M) it was 96 % of control. In addition, the Residual activity is 96 % of control on RPS6KA1 (1.0E-05 M); 110 % of control on RPS6KA1 (1.0E-06 M); 89 % of control at SYK (1.0E-05 M); 105 % of control on SYK (1.0E-06 M); 93 % of control on TSK2 (1.0E-05 M); 97 % of control on TSK2 (1.0E-06 M). Further, the Residual activity was 85 % of control at p38delta (1.0E-05 M) and 93 % of control on p38delta (1.0E-06 M).

Take `O=C(Nc1ccc(F)c(Nc2ccc3c(c2)CCCCC3=O)c1)c1cccc(F)c1` [Compound 109]: the Residual activity on DYRK4 (1.0E-05 M) is given as 87 % of control; at DYRK4 (1.0E-06 M), 89 % of control; on MAP3K7/MAP3K7IP1 (1.0E-05 M) it was 91 % of control; on MAP3K7/MAP3K7IP1 (1.0E-06 M) it was 91 % of control; at MEK2 (1.0E-05 M), 89 % of control; at MEK2 (1.0E-06 M) it was 100 % of control. Also, the Residual activity was 94 % of control at MEK5 (1.0E-05 M); 104 % of control on MEK5 (1.0E-06 M); 94 % of control at MTOR (1.0E-05 M); 94 % of control on MTOR (1.0E-06 M); 95 % of control on PHKG2 (1.0E-05 M); 102 % of control at PHKG2 (1.0E-06 M). For the same molecule, the Residual activity was 95 % of control on RPS6KA1 (1.0E-05 M); 96 % of control at RPS6KA1 (1.0E-06 M); 94 % of control at SYK (1.0E-05 M); 95 % of control on SYK (1.0E-06 M); 99 % of control on TSK2 (1.0E-05 M); 88 % of control on TSK2 (1.0E-06 M). For the same molecule, the Residual activity at p38delta (1.0E-05 M) was 98 % of control; at p38delta (1.0E-06 M), 91 % of control.
